Counter-ions that a name gives are not always drawn.
Target: T1, Human ATX protein (Homo sapiens, UniProt Q13822)
T1 construct: made in house
Assay: ATX biochemical assay (FRET, FS-3 substrate)
Settings: FRET assay, FS-3 2 μM, ATX 1.0 μg/mL, 30 minutes preincubation, 2 hours reaction at room temperature; read-out: IC50
In short: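 In-house human ATX (1.0 μg/mL final) was preincubated with compound for 30 min at room temperature in Tris buffer pH 7.4 with 1 mg/mL fatty acid free-BSA. FS-3 substrate (2 μM final) was then hydrolysed for 2 hours at room temperature, protected from light, and read as fluorescence at ex 485/em 538 nm.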

Structure (SMILES)	IC50 [nM]
O=C(C[C@H]1CC[C@@H](C(=O)O)CC1)N1CCc2c(C(F)(F)F)nn(CCC3CCCCC3)c2C1 [Example 7-21, cis-4-(2-(1-(2-Cyclohexylethyl)-3-(trifluoromethyl)-4,5-dihydro-1H-pyrazolo[3,4-c]pyridin-6(7H)-yl)-2-oxoethyl)cyclohexanecarboxylic acid]	≤ 100
CCOC(=O)C1CCC(CC(=O)N2CCc3cnn(Cc4ccc(Cl)cc4F)c3C2)CC1 (stereo not drawn) [Example 1-4, Ethyl 4-(2-(1-(4-chloro-2-fluorobenzyl)-4,5-dihydro-1H-pyrazolo[3,4-c]pyridin-6(7H)-yl)-2-oxoethyl)cyclohexanecarboxylate]	≤ 100
CCOC(=O)C1CCC(OC(=O)N2CCc3c(C(F)(F)F)nn(Cc4ccc(Cl)cc4F)c3C2)CC1 (stereo not drawn) [Example 4-1, 4-(Ethoxycarbonyl)cyclohexyl1-(4-chloro-2-fluorobenzyl)-3-(trifluoromethyl)-4,5-dihydro-1H-pyrazolo[3,4-c]pyridine-6(7H)-carboxylate]	≤ 100
CC(C(=O)N1CCc2c(C(F)(F)F)nn(Cc3ccc(Cl)cc3F)c2C1)C1CCC(C(=O)O)CC1 (stereo not drawn) [Example 6-4, 4-(1-(1-(4-Chloro-2-fluorobenzyl)-3-(trifluoromethyl)-4,5-dihydro-1H-pyrazolo[3,4-c]pyridin-6(7H)-yl)-1-oxopropan-2-yl)cyclohexanecarboxylic acid]	≤ 100
O=C(CC1CC(N2CCCC2)C1)N1CCc2c(C(F)(F)F)nn(Cc3ccc(F)cc3)c2C1 (stereo not drawn) [Example 22-3, 1-(1-(4-Fluorobenzyl)-3-(trifluoromethyl)-4,5-dihydro-1H-pyrazolo[3,4-c]pyridin-6(7H)-yl)-2-(3-(pyrrolidin-1-yl)cyclobutyl)ethanone TFA salt]	≤ 100
O=C(O)C1CN(CC(=O)N2CCc3c(C(F)(F)F)nn(Cc4ccc(Cl)cc4F)c3C2)C1 [Example 13-17, 1-(2-(1-(4-Chloro-2-fluorobenzyl)-3-(trifluoromethyl)-4,5-dihydro-1H-pyrazolo[3,4-c]pyridin-6(7H)-yl)-2-oxoethyl)azetidine-3-carboxylic acid TFA salt]	≤ 100
O=C(CC1CCC(N2CCOCC2)CC1)N1CCc2c(C(F)(F)F)nn(Cc3ccc(F)cc3)c2C1 (stereo not drawn) [Example 22-10, 1-(1-(4-Fluorobenzyl)-3-(trifluoromethyl)-4,5-dihydro-1H-pyrazolo[3,4-c]pyridin-6(7H)-yl)-2-(4-morpholinocyclohexyl)ethanone TFA salt]	≤ 100
O=C(O)C1CC2(C1)CN(CC(=O)N1CCc3c(C(F)(F)F)nn(Cc4ccc(Cl)cc4F)c3C1)C2 [Example 13-21, 2-(2-(1-(4-Chloro-2-fluorobenzyl)-3-(trifluoromethyl)-4,5-dihydro-1H-pyrazolo[3,4-c]pyridin-6(7H)-yl)-2-oxoethyl)-2-azaspiro[3.3]heptane-6-carboxylic acid TFA salt]	≤ 100
O=C(O)C1CCC(CC(=O)N2CCc3c(C(F)(F)F)nn(Cc4ccc(F)cc4)c3C2)C1 (mixture of isomers) [Example 6-7, 3-(2-(1-(4-Fluorobenzyl)-3-(trifluoromethyl)-4,5-dihydro-1H-pyrazolo[3,4-c]pyridin-6(7H)-yl)-2-oxoethyl)cyclopentanecarboxylic acid]	≤ 100
O=C(CC1CC(N2CCCCC2)C1)N1CCc2c(C(F)(F)F)nn(Cc3ccc(F)cc3)c2C1 (stereo not drawn) [Example 22-4, 1-(1-(4-Fluorobenzyl)-3-(trifluoromethyl)-4,5-dihydro-1H-pyrazolo[3,4-c]pyridin-6(7H)-yl)-2-(3-(piperidin-1-yl)cyclobutyl)ethanone TFA salt]	≤ 100
O=C(O)C12CCC(C(=O)N3CCc4c(C(F)(F)F)nn(Cc5ccc(F)cc5)c4C3)(CC1)C2 [Example 5-50, 4-(1-(4-Fluorobenzyl)-3-(trifluoromethyl)-4,5,6,7-tetrahydro-1H-pyrazolo[3,4-c]pyridine-6-carbonyl)bicyclo[2.2.1]heptane-1-carboxylic acid]	≤ 100
O=C(O)CN1CCC(CC(=O)N2CCc3c(C(F)(F)F)nn(Cc4ccc(Cl)cc4F)c3C2)CC1 [Example 15-1, 2-(4-(2-(1-(4-Chloro-2-fluorobenzyl)-3-(trifluoromethyl)-4,5-dihydro-1H-pyrazolo[3,4-c]pyridin-6(7H)-yl)-2-oxoethyl)piperidin-1-yl)acetic acid]	≤ 100
CC(C)N1CC(CC(=O)N2CCc3c(C(F)(F)F)nn(Cc4ccc(Cl)cc4F)c3C2)C[C@H]1C(=O)O (stereo partly drawn) [Example 10-12, (2S)-4-(2-(1-(4-Chloro-2-fluorobenzyl)-3-(trifluoromethyl)-4,5-dihydro-1H-pyrazolo[3,4-c]pyridin-6(7H)-yl)-2-oxoethyl)-1-isopropylpyrrolidine-2-carboxylic acid TFA salt]	≤ 100
O=C(O)c1ccc(CC(=O)N2CCc3c(C(F)(F)F)nn(Cc4ccc(Cl)cc4F)c3C2)cc1 [Example 5-5, 4-(2-(1-(4-Chloro-2-fluorobenzyl)-3-(trifluoromethyl)-4,5-dihydro-1H-pyrazolo[3,4-c]pyridin-6(7H)-yl)-2-oxoethyl)benzoic acid]	≤ 100
C[C@]1(C(=O)O)C[C@@H](CC(=O)N2CCc3c(C(F)(F)F)nn(Cc4ccc(F)cc4)c3C2)C1 [Example 7-23, cis-3-(2-(1-(4-Fluorobenzyl)-3-(trifluoromethyl)-4,5-dihydro-1H-pyrazolo[3,4-c]pyridin-6(7H)-yl)-2-oxoethyl)-1-methylcyclobutanecarboxylic acid]	≤ 100
O=C(CC1CC(N2CCC2)C1)N1CCc2c(C(F)(F)F)nn(Cc3ccc(F)cc3)c2C1 (stereo not drawn) [Example 22-1, 2-(3-(Azetidin-1-yl)cyclobutyl)-1-(1-(4-fluorobenzyl)-3-(trifluoromethyl)-4,5-dihydro-1H-pyrazolo[3,4-c]pyridin-6(7H)-yl)ethanone TFA salt]	≤ 100
O=C(O)C1CCC(CC(=O)N2CCc3c(C(F)(F)F)nn(Cc4ccc(C(F)(F)F)cc4)c3C2)CC1 (mixture of isomers) [Example 6-2, 4-(2-Oxo-2-(3-(trifluoromethyl)-1-(4-(trifluoromethyl)benzyl)-4,5-dihydro-1H-pyrazolo[3,4-c]pyridin-6(7H)-yl)ethyl)cyclohexanecarboxylic acid]	≤ 100
O=C(C[C@H]1CC[C@@H](C(=O)O)CC1)N1CCc2cnn(Cc3ccc(Cl)cc3F)c2C1 [Example 7-4, cis-4-(2-(1-(4-chloro-2-fluorobenzyl)-4,5-dihydro-1H-pyrazolo[3,4-c]pyridin-6(7H)-yl)-2-oxoethyl)cyclohexanecarboxylic acid]	≤ 100
CCOC(=O)[C@H]1CC[C@H](CC(=O)N2CCc3c(C(F)(F)F)nn(CCc4ccccc4)c3C2)CC1 [Example 1-28, trans-Ethyl 4-(2-oxo-2-(1-phenethyl-3-(trifluoromethyl)-4,5-dihydro-1H-pyrazolo[3,4-c]pyridin-6(7H)-yl)ethyl)cyclohexanecarboxylate]	100 to 250
CCOC(=O)CCNCC(=O)N1CCc2c(C(F)(F)F)nn(Cc3ccc(F)cc3)c2C1 [Example 12-9, Ethyl 3-(2-(1-(4-fluorobenzyl)-3-(trifluoromethyl)-4,5-dihydro-1H-pyrazolo[3,4-c]pyridin-6(7H)-yl)-2-oxoethylamino)propanoate]	> 10000
CCOC(=O)[C@H]1CC[C@H](CC(=O)N2CCc3c(C(F)(F)F)nn(Cc4cccs4)c3C2)CC1 [Example 1-46, trans-Ethyl-4-(2-oxo-2-(1-(thiophen-2-ylmethyl)-3-(trifluoromethyl)-4,5-dihydro-1H-pyrazolo[3,4-c]pyridin-6(7H)-yl)ethyl)cyclohexanecarboxylate]	≤ 100
